The text below walks through data of publication PMC3556010, “A new strategy based on pharmacophore-based virtual screening in adenosine deaminase inhibitors detection and in-vitro study” (DARU Journal of Pharmaceutical Sciences, 2012).

One may read the IC50 as the concentration needed to halve the response being measured.

Assay [1] deals with T1, Adenosine deaminase (from bovine spleen) (Bos taurus, UniProt P56658).
T1 construct: Adenosine deaminase (from bovine spleen in 3.2 M ammonium sulfate) was purchased from Sigma; purchased Sigma (St. Louis, MO, USA); host or cells: bovine spleen (tissue-derived)
T1 sequence (P56658 1-363): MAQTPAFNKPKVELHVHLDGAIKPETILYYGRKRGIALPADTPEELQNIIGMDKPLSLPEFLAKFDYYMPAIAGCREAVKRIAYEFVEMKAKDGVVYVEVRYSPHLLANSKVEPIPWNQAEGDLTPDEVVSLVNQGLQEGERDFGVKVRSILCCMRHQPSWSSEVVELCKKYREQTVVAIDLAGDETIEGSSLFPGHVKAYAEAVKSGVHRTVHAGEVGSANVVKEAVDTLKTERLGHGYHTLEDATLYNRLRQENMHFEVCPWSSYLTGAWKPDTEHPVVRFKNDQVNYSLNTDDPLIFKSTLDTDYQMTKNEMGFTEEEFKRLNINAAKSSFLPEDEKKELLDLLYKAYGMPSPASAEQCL
In words: ADA enzyme inhibition by UV-vis spectrophotometry (Kaplan method, absorbance at 265 nm). The assay is classed as biochemical. Conditions: for IC50: pH 7.5, 37°C, phosphate buffer; for Ki: secondary plot of apparent Km versus [I], inhibitor 0–130 μM, substrate 20–124 μM, 37°C, pH 7.5, read-out: Ki (inhibition constant). The method, then:
Adenosine deaminase (from bovine spleen in 3.2 M ammonium sulfate) was purchased from Sigma (St. Louis, MO, USA). Phosphate buffer 50 mM, pH 7.5, was used as media which is comprised NaH2PO4 and Na2HPO4 and are from Merck. In addition, other material such as solvents, were purchased from this company.
All of biological samples were prepared with double distilled water. The adenosine stock solution prepared and was used in concentration range of 0.01-0.4 mM. The concentration of enzyme in the assay mixture 50 mM sodium phosphate buffer, was 0.9 nM with a final volume of 1ml. Enzymatic activities were assayed by UV–vis spectrophotometry (Shimadzu-3100, Japan) based on Kaplan Method to follow the decrease in absorbance at 265 nm resulting from the conversion of adenosine to inosine.
For accurate determination of kinetic parameters, the IC50 values were evaluated, and then the enzyme inhibition was studied in 180 s intervals. […] In a competitive inhibition; Vmax is unaltered, whereas Km is increased. The slope of a competitive plot is equal to:
Slope=KmI/Vmax.Ki+Km/Vmax
All experiments performed in 37°C and phosphate buffer, pH=7.5.

For assay [2], the target named is T2, Adenosine deaminase (Bos taurus, UniProt P56658).
T2 construct: Adenosine deaminase (from bovine spleen in 3.2 M ammonium sulfate) was purchased from Sigma; purchased Sigma (St. Louis, MO, USA); host or cells: bovine spleen (tissue-derived)
T2 sequence (P56658 1-363): T1 sequence (P56658 1-363)
In words: Fluorescence spectroscopy of ADA 3-D structure changes. More on the design: species or system bovine. The settings on record: excitation 290 nm, pH 7.5, 37°C; inhibitor 10 μM. The method, then:
Fluorescence study has been done with fluorescent spectroscopy (Hitachi MPF-4, Japan), which its cell length is 1cm. In this method, the exciting wavelength was adjusted in 290 nm and the emission was studied in range of 300–400 nm for possible enzyme 3-D structure changes. In this experiment, different concentrations of inhibitors (5–100 μM) were investigated in the presence of ADA (0.01unit) by final volume of 400 μL with phosphate buffer.
To investigate changes in enzyme 3-D structure at different concentration of inhibitors (10–100 μM), the fluorescence experiments were done in excitation wavelength of 290 nm, which is due to tryptophan amino acids in the active site of enzyme Figure 5.
Figure 5 The fluorescence spectra of adenosine deaminase at pH=7.5 and T=37°C in the presence of different concentrations of three inhibitors: 10–100 μM.

Assay [3] deals with adenosine deaminase. Conditions: cited from earlier work.

On to `Cn1c([N+](=O)[O-])cnc1-c1nnco1` [Compound 1], for which, in assay [1], the half-inhibitory concentration (IC50) is 103 µM and the Ki turned out to be 63 µM.
As to `Cn1c([N+](=O)[O-])cnc1C#N` [Compound 2], in assay [1] (kinetic studies), the inhibition mechanism entry was “competitive”. Also, in assay [1], the IC50 worked out at 41 µM and the Ki stood at 20 µM. Besides, at Adenosine deaminase [2], the “enzyme structural changes by fluorescence intensity” value is “sever structural changes”.
Consider “erythro-9-(2-hydroxy-3-nonyl) adenine [EHNA]”, for which the Ki at adenosine deaminase [3] is 0.037 µM.
